Legend:
[1] = system: dark-adapted bullfrog retinas (rods); assay: Pyroelectric calorimetry and transretinal voltage of flash-stimulated dark-adapted retinas; format: cell-based, bullfrog (R. catesbiana)
Experimental: Dark-adapted bullfrog (R. catesbiana) retinas, removed under infrared illumination, were stored for 10 min to 1 hr in an oxygenated bath containing (in mM) Na^+ : 100, K^+ : 2.7, Ca^++ : 1.4, Mg^++ : 0.5, phosphate: 0.5, HEPES: 10, glucose: 11, EDTA: 0.01, pH 7.1. Cl^- was the main anion. Disks 6.3 mm. across were cut from a retina and attached by their vitreal surfaces to 25 μm. thick nylon mesh (Small Parts, Ltd., Miami, Fla.) disks of the same diameter.
Before use, each disk was soaked for 5 min in a medium containing 10 mM glutamate and 5 mM cysteine to suppress electrical responses from all retinal cells except the rods, cones and glial Muller cells. Using an infrared viewer, the disks were placed on the detector with receptor layer down and excess fluid was blotted away. Flowing moist oxygen replaced the atmosphere every 2 m.
6 μs flashes of spectral width 70 nm. centered at 500, 550 or 640 nm. from a Xenon flash tube were attenuated by a circular graded wedge and fed via a light pipe whose end was projected to a 6 mm circle at the retina. A computerized stepping motor turned the wedge so that flashes of varying intensity could be quickly delivered. The light input at the retina was measured with a silicon photovoltaic diode (International Light, Inc., Newburyport, Mass.). Exposures of the OS were calculated for a rod density in the retinal mosaic of 1.76×10^6 cm^-2. Cone and green rod pigments were neglected and rod porphyropsin was lumped with rhodopsin. Assuming the quantum efficiency of rhodopsin photoisomerization to be 0.6 and its molar absorbance at 550 nm to be 2.0×10^4 M^-1 cm^-1, its isomerization cross section ZR was 4.6×10^-17 cm^2.
In retinas incubated in glutamate Ringer containing […] and a ql of 1-2 μK followed by steady cooling lasting for more than 20 s. or until the dark current resumed. A second flash while the dark current was suppressed (as judged by the absence of change in Vr) gave no ql and no change in rl. In 30 experiments, Vr responses, whose amplitudes corresponded to dark currents of 20-50 pA/rod, were accompanied by ql bursts of 0.8 to 2 μK (mean ±s.e.e.: 1.09±0.05, n=24) while rl varied from -2 to -5 μKs^-1.
ql was unchanged by several agents that suppressed the dark current and changed rl. In this regard, the effects of flashes causing 180 PI/rod on retinal temperature and transretinal voltage were studied with an average of 2-4 trials with 60 s intervals between flashes, during which ql recovered. 30 mM ca^++ in the incubation fluid reduced Vr sixfold and changed rl 's sign while ql remained […] (n=4) μK. […] Nevertheless, a 180 PI/OS flash produced a ql of 1.6±0.1 (n=3) μK and rl of 4 μK/s.

[2] = target: cGMP-induced cationic conductance of rod outer segment membrane patches; settings: cited from earlier work

Compound: CC(C)Cn1c(=O)n(C)c(=O)c2[nH]cnc21 [IBMX]
- Vr (transretinal voltage response) ([1]; 500 IBMX, 180 PI/rod): suppressed
- ql (fast heat burst) ([1]; 500 IBMX, 180 PI/rod): suppressed
- Vr (transretinal voltage response) ([1]; 500 IBMX, tenfold brighter flashes): slow Vr waves
- ql (delayed heat) ([1]; 500 IBMX, tenfold brighter flashes, n=6): 2.1±0.1 μK

Compound: Nc1nc2c(ncn2[C@@H]2O[C@@H]3COP(=O)(O)O[C@H]3[C@H]2O)c(=O)[nH]1 [cGMP]
- Kd ([2]; membrane patch conductance vs free [cGMP], various studies, read-out: dissociation constant Kc): 10 to 42 µM
- concentration at which the cationic conductance of outer segment membranes increases rapidly and reversibly ([2]; outer segment membranes): > 5 µM

Compound: c1c[nH]cn1 [imidazole]
- ql (fast heat burst) ([1]; 20 mM imidazole in incubation medium, n=3): 2.4±0.4 μK

Compound: C[C@@H]1O[C@@H](O[C@H]2C[C@@H](O)[C@]3(CO)[C@H]4[C@H](O)C[C@]5(C)[C@@H](C6=CC(=O)OC6)CC[C@]5(O)[C@@H]4CC[C@]3(O)C2)[C@H](O)[C@H](O)[C@H]1O [ouabain]
- Vr (transretinal voltage response) ([1]; 50 μM ouabain, 10 m. incubation): no Vr
- rl (steady heat flux) ([1]; 50 μM ouabain, 180 PI/OS flash): 4 μK/s
- ql (fast heat burst) ([1]; 50 μM ouabain, 180 PI/OS flash, n=3): 1.6±0.1 μK

Source: patent US5030012A, “Pyroelectric calorimeter” (The United States of America as represented by the …, priority 1990, dated 1991)
